In test [1] the test system is Entercoccus faecium 180-1. Kind of test: broth micro-dilution MIC. The test is classed as cell-based. As to the method:
(§1) The MIC's were determined using a standard broth micro-dilution assay.

For test [2], the system named is Staphylococcus aureus 489. Briefly: broth micro-dilution MIC. In kind it is cell-based. As to the method:
as §1

Test [3] deals with Staphylococcus aureus SA1199. Kind of test: broth micro-dilution MIC. The test is classed as cell-based. As to the method:
as §1

For test [4], the system named is Staphylococcus aureus X400. Briefly: broth micro-dilution MIC. The test is classed as cell-based. As to the method: as §1
Test [5] relates to Staphylococcus aureus X778. Briefly: broth micro-dilution MIC. In kind it is cell-based. As to the method:
as §1

Test [6] relates to Staphylococcus aureus 446. Kind of test: broth micro-dilution MIC. In kind it is cell-based. As to the method:
as §1

Test [7] concerns Staphylococcus aureus 491. Kind of test: broth micro-dilution MIC. The test is classed as cell-based. As to the method: as §1
The test system of test [8] is Streptococcus pyogenes C203. Briefly: broth micro-dilution MIC. The test is classed as cell-based. As to the method:
as §1

In test [9] the test system is Staphylococcus aureus SA1199A. Kind of test: broth micro-dilution MIC. The test is classed as cell-based. As to the method: as §1
Test [10] concerns Staphylococcus aureus 447. Kind of test: broth micro-dilution MIC. In kind it is cell-based. As to the method:
as §1

Test [11] deals with Entercoccus faecium 276. Kind of test: broth micro-dilution MIC. In kind it is cell-based. As to the method:
as §1

Test [12] has as its system Entercoccus faecium 2041. Kind of test: broth micro-dilution MIC. The settings on record: Entercoccus faecium 2041. The test is classed as cell-based. As to the method: (§2) The formula I compounds have in vitro and in vivo activity against Gram-positive pathogenic bacteria. The MIC's were determined using a standard broth micro-dilution assay.
Test [13] deals with Enterococcus gallinarum 245. Briefly: broth micro-dilution MIC. The test is classed as cell-based. To be noted: Enterococcus gallinarum 245. As to the method: as §2
The test system of test [14] is Staphylococcus haemolyticus 415. Briefly: broth micro-dilution MIC. In kind it is cell-based. As to the method:
as §2

Test [15] concerns Streptococcus pneumoniae P1. Briefly: broth micro-dilution MIC. In kind it is cell-based. As to the method: as §2
In test [16] the test system is Staphylococcus epidermidis 270. Kind of test: broth micro-dilution MIC. The test is classed as cell-based. As to the method:
as §2

In test [17] the test system is Entercoccus faecium 180. Kind of test: broth micro-dilution MIC. The test is classed as cell-based. To be noted: Entercoccus faecium 180. As to the method:
as §2

Test [18] deals with Staphylococcus haemolyticus 105. Kind of test: broth micro-dilution MIC. In kind it is cell-based. As to the method: as §2
For test [19], the system named is vancomycin-susceptible enterococci. Kind of test: broth micro-dilution, mean geometric MIC. To be noted: enterococci, 24-hour incubation. In kind it is cell-based, Enterococcus faecium and Enterococcus faecalis.
Test [20] deals with vancomycin-resistant enterococci. Briefly: broth micro-dilution, mean geometric MIC. To be noted: enterococci, 24-hour incubation. In kind it is cell-based, Enterococcus faecium and Enterococcus faecalis.
Test [21] has as its system Staphylococcus aureus SA1199B. In kind it is cell-based. As to the method:
as §1

The test system of test [22] is Staphylococcus aureus S13E. In kind it is cell-based. As to the method: as §1

Values after ≈ are worked out from the molar mass of the structure shown.

For `CNC(CC(C)C)C(=O)NC1C(=O)NC(CC(N)=O)C(=O)NC2C(=O)NC3C(=O)NC(C(=O)NC(C(=O)O)c4cc(O)cc(O)c4-c4cc3ccc4O)C(OC3CC(C)(N)C(O)C(C)O3)c3ccc(c(Cl)c3)Oc3cc2cc(c3OC2OC(CO)C(O)C(O)C2OC2CC(C)(NCc3cccc(Oc4ccc(Cl)cc4)c3)C(O)C(C)O2)Oc2ccc(cc2Cl)C1O` (centres unmarked) [Compound 86], the MIC is at most 0.06 µg/mL in [1]; 1 µg/mL (≈ 0.553 µM) in [2]; 0.5 µg/mL (≈ 0.276 µM) in test [3]; 1 µg/mL (≈ 0.553 µM) in [4]; 1 µg/mL (≈ 0.553 µM) in test [5]; 1 µg/mL (≈ 0.553 µM) in test [6]. Moreover, the MIC in test [7] is 1 µg/mL (≈ 0.553 µM); in [8], at most 0.06 µg/mL; in test [9] it was at most 0.06 µg/mL; in test [10] it was 0.5 µg/mL (≈ 0.276 µM); in test [11] it was at most 0.06 µg/mL; in [12], at most 0.06 µg/mL. The MIC in [13] is 1 µg/mL (≈ 0.553 µM); in test [14] it was 1 µg/mL (≈ 0.553 µM); in [15], at most 0.06 µg/mL; in test [16], 1 µg/mL (≈ 0.553 µM); in test [17] it was at most 0.06 µg/mL; in test [18] it was 1 µg/mL (≈ 0.553 µM). Also, the minimum inhibitory concentration (MIC) in test [21] and in [22] was 1 µg/mL (≈ 0.553 µM) throughout. Also, the “mean geometric MIC, Vancomycin Sensitive Strains” value in [19] was determined as 0.036 µg/mL. In test [20], the “mean geometric MIC, Vancomycin Resistant Strains” value came out at 1.4 µg/mL.

Turning to `CN[C@H](CC(C)C)C(=O)N[C@H]1C(=O)N[C@@H](CC(N)=O)C(=O)N[C@H]2C(=O)N[C@H]3C(=O)N[C@H](C(=O)N[C@H](C(=O)O)c4cc(O)cc(O)c4-c4cc3ccc4O)[C@H](O[C@H]3C[C@](C)(N)[C@@H](O)[C@H](C)O3)c3ccc(c(Cl)c3)Oc3cc2cc(c3O[C@@H]2O[C@H](CO)[C@@H](O)[C@H](O)[C@H]2O[C@H]2C[C@](C)(NCc3cccc(-c4ccccc4)c3)[C@@H](O)[C@H](C)O2)Oc2ccc(cc2Cl)[C@H]1O` [Compound 91], the MIC in test [1] is at most 0.06 µg/mL; in [2], at most 0.06 µg/mL; in test [3], at most 0.06 µg/mL; in [4], 0.5 µg/mL (≈ 0.284 µM); in test [5], at most 0.06 µg/mL; in test [6] it was 0.5 µg/mL (≈ 0.284 µM). Further, the minimum inhibitory concentration (MIC) in [7] is 1 µg/mL (≈ 0.569 µM); in test [8] it was at most 0.06 µg/mL; in test [9] it was at most 0.06 µg/mL; in test [10] it was 0.5 µg/mL (≈ 0.284 µM); in test [11], at most 0.06 µg/mL; in [12], at most 0.06 µg/mL. Also, the minimal inhibitory concentration (MIC) in test [13] was 2 µg/mL (≈ 1.14 µM); in [14] it was 2 µg/mL (≈ 1.14 µM); in [15], at most 0.06 µg/mL; in [16], 0.5 µg/mL (≈ 0.284 µM); in test [17], 0.5 µg/mL (≈ 0.284 µM); in [18], 2 µg/mL (≈ 1.14 µM). For the same compound, the MIC in test [21] was 0.5 µg/mL (≈ 0.284 µM); in test [22], at most 0.06 µg/mL. Besides, in test [19], the “mean geometric MIC, Vancomycin Sensitive Strains” value was 0.11 µg/mL. Moreover, the “mean geometric MIC, Vancomycin Resistant Strains” value in test [20] came out at 2.8 µg/mL.

Consider `CN[C@H](CC(C)C)C(=O)N[C@H]1C(=O)N[C@@H](CC(N)=O)C(=O)N[C@H]2C(=O)N[C@H]3C(=O)N[C@H](C(=O)N[C@H](C(=O)O)c4cc(O)cc(O)c4-c4cc3ccc4O)[C@H](O[C@H]3C[C@](C)(N)[C@@H](O)[C@H](C)O3)c3ccc(c(Cl)c3)Oc3cc2cc(c3O[C@@H]2O[C@H](CO)[C@@H](O)[C@H](O)[C@H]2O[C@H]2C[C@](C)(NCc3ccc(Oc4ccc(C)cc4)cc3)[C@@H](O)[C@H](C)O2)Oc2ccc(cc2Cl)[C@H]1O` [Compound 95], for which the MIC in test [1] is at most 0.06 µg/mL; in [2] it was 2 µg/mL (≈ 1.12 µM); in test [3], 0.5 µg/mL (≈ 0.28 µM); in test [4], 1 µg/mL (≈ 0.559 µM); in test [5], 1 µg/mL (≈ 0.559 µM); in [6] it was 0.5 µg/mL (≈ 0.28 µM). The MIC in [7] is 1 µg/mL (≈ 0.559 µM); in test [8] it was at most 0.06 µg/mL; in test [9], at most 0.06 µg/mL; in test [10] it was 0.5 µg/mL (≈ 0.28 µM); in test [11] it was 0.125 µg/mL (≈ 0.0699 µM); in test [12], at most 0.06 µg/mL. Besides, the MIC was 1 µg/mL (≈ 0.559 µM) in test [13]; 1 µg/mL (≈ 0.559 µM) in test [14]; at most 0.06 µg/mL in test [15]; 1 µg/mL (≈ 0.559 µM) in test [16]; 0.5 µg/mL (≈ 0.28 µM) in test [17]; 1 µg/mL (≈ 0.559 µM) in [18]. Also, the MIC in [21] was 1 µg/mL (≈ 0.559 µM); in test [22], 2 µg/mL (≈ 1.12 µM). The “mean geometric MIC, Vancomycin Sensitive Strains” value in [19] was 0.054 µg/mL. Further, the “mean geometric MIC, Vancomycin Resistant Strains” value in [20] worked out at 1.7 µg/mL.

For `CN[C@H](CC(C)C)C(=O)N[C@H]1C(=O)N[C@@H](CC(N)=O)C(=O)N[C@H]2C(=O)N[C@H]3C(=O)N[C@H](C(=O)N[C@H](C(=O)O)c4cc(O)cc(O)c4-c4cc3ccc4O)[C@H](O[C@H]3C[C@](C)(N)[C@@H](O)[C@H](C)O3)c3ccc(c(Cl)c3)Oc3cc2cc(c3O[C@@H]2O[C@H](CO)[C@@H](O)[C@H](O)[C@H]2O[C@H]2C[C@](C)(NCc3ccc(Oc4ccc(C(C)(C)C)cc4)cc3)[C@@H](O)[C@H](C)O2)Oc2ccc(cc2Cl)[C@H]1O` [Compound 96], the MIC in test [1] was determined as 0.25 µg/mL (≈ 0.137 µM); in test [2], 1 µg/mL (≈ 0.546 µM); in test [3], 2 µg/mL (≈ 1.09 µM); in [4], 2 µg/mL (≈ 1.09 µM); in test [5] it was 1 µg/mL (≈ 0.546 µM); in test [6] it was 1 µg/mL (≈ 0.546 µM). For the same compound, the MIC was 1 µg/mL (≈ 0.546 µM) in [7]; at most 0.06 µg/mL in test [8]; at most 0.06 µg/mL in [9]; 1 µg/mL (≈ 0.546 µM) in test [10]; 0.5 µg/mL (≈ 0.273 µM) in [11]; 1 µg/mL (≈ 0.546 µM) in test [12]. Moreover, the minimal inhibitory concentration (MIC) in test [13] is 2 µg/mL (≈ 1.09 µM); in test [14], 2 µg/mL (≈ 1.09 µM); in test [15] it was at most 0.06 µg/mL; in [16], 2 µg/mL (≈ 1.09 µM); in [17], 0.5 µg/mL (≈ 0.273 µM); in [18], 2 µg/mL (≈ 1.09 µM). Further, the minimum inhibitory concentration (MIC) in [21] and in test [22] was 1 µg/mL (≈ 0.546 µM) each time. Further, the “mean geometric MIC, Vancomycin Sensitive Strains” value in test [19] came to 0.11 µg/mL. In addition, in [20], the “mean geometric MIC, Vancomycin Resistant Strains” value was 1.4 µg/mL.

With `CCCOC(c1ccccc1)c1ccc(CNC2(C)CC(OC3C(Oc4c5cc6cc4Oc4ccc(cc4Cl)C(OC4CC(C)(N)C(O)C(C)O4)C4NC(=O)C(NC(=O)C6NC(=O)C(CC(N)=O)NC(=O)C(NC(=O)C(CC(C)C)NC)C(O)c6ccc(c(Cl)c6)O5)c5ccc(O)c(c5)-c5c(O)cc(O)cc5C(C(=O)O)NC4=O)OC(CO)C(O)C3O)OC(C)C2O)cc1` (centres unmarked) [Compound 128], the minimum inhibitory concentration (MIC) in test [1] amounted to 0.125 µg/mL (≈ 0.0683 µM); in [2], 1 µg/mL (≈ 0.546 µM); in [3], 0.5 µg/mL (≈ 0.273 µM); in test [4], 1 µg/mL (≈ 0.546 µM); in test [5] it was 1 µg/mL (≈ 0.546 µM); in [6], 4 µg/mL (≈ 2.18 µM). Also, the minimum inhibitory concentration (MIC) in [7] was 2 µg/mL (≈ 1.09 µM); in test [8], at most 0.06 µg/mL; in test [9], 0.5 µg/mL (≈ 0.273 µM); in test [10], 1 µg/mL (≈ 0.546 µM); in test [11], 1 µg/mL (≈ 0.546 µM); in [12], 0.5 µg/mL (≈ 0.273 µM). Also, the MIC is 2 µg/mL (≈ 1.09 µM) in test [13]; 2 µg/mL (≈ 1.09 µM) in [14]; at most 0.06 µg/mL in test [15]; 1 µg/mL (≈ 0.546 µM) in [16]; 1 µg/mL (≈ 0.546 µM) in test [17]; 1 µg/mL (≈ 0.546 µM) in test [18]. For the same compound, the MIC in test [21] was 2 µg/mL (≈ 1.09 µM); in [22] it was 1 µg/mL (≈ 0.546 µM). The “mean geometric MIC, Vancomycin Sensitive Strains” value in test [19] was 0.11 µg/mL. Besides, the “mean geometric MIC, Vancomycin Resistant Strains” value in test [20] was 2.0 µg/mL.

These data come from patent US5840684A, “Glycopeptide antibiotic derivatives” (Eli Lilly and Company, priority 1995, dated 1998).
